Measured values from ChEMBL document CHEMBL1201862, “PubChem BioAssay data set” (2004).
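Exposure lasted 48 hours, with cells grown in 96-well plates and compounds tested at five concentrations. Here, GI50 denotes the concentration required for 50% inhibition of growth.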 Active and inactive are the calls of the source. Rule as the data show it: active = GI50 up to about 1.1 µM and inactive = higher.

Legend:
Test in all cases: DTP human tumour cell line panel, 48 h
[1] = test system: PC-3
[2] = test system: HCT-15
[3] = test system: NCI-H23
[4] = test system: 786-0
[5] = test system: ACHN
[6] = test system: BT-549
[7] = test system: MCF7
[8] = test system: SR
[9] = test system: HCC 2998
[10] = test system: MDA-MB-231
[11] = test system: CCRF-CEM
[12] = test system: UACC-257
[13] = test system: NCI-H460
[14] = test system: OVCAR-3
[15] = test system: SF-268
[16] = test system: MDA-N
[17] = test system: RPMI-8226
[18] = test system: HOP-62
[19] = test system: NCI-H522
[20] = test system: SK-MEL-5
[21] = test system: SNB-19
[22] = test system: KM12
[23] = test system: A498
[24] = test system: T47D
[25] = test system: MDA-MB-435
[26] = test system: MOLT-4
[27] = test system: LOX IMVI
[28] = test system: COLO 205
[29] = test system: DU-145
[30] = test system: Malme-3M
[31] = test system: OVCAR-4
[32] = test system: UACC-62
[33] = test system: OVCAR-8
[34] = test system: K562
[35] = test system: CAKI-1
[36] = test system: Hs-578T
[37] = test system: A549
[38] = test system: SK-MEL-28
[39] = test system: HCT-116
[40] = test system: M14
[41] = test system: NCI/ADR-RES
[42] = test system: TK-10
[43] = test system: SW-620
[44] = test system: NCI-H226
[45] = test system: OVCAR-5
[46] = test system: RXF 393
[47] = test system: SN12C
[48] = test system: U-251
[49] = test system: IGROV-1
[50] = test system: SNB-75
[51] = test system: HL-60
[52] = test system: UO-31
[53] = test system: SF-295
[54] = test system: EKVX
[55] = test system: SK-MEL-2

SMILES: CCOC(=O)c1cc2c3ccn(Cc4ccccc4)c3c3c(C)noc3c2[nH]1
- GI50 [1]: > 100 µM (inactive)
- GI50 [2]: > 100 µM
- GI50 [3]: > 100 µM (inactive)
- GI50 [4]: > 100 µM (inactive)
- GI50 [5]: > 100 µM (inactive)
- GI50 [6]: > 100 µM (inactive)
- GI50 [7]: > 100 µM (inactive)
- GI50 [8]: > 100 µM (inactive)
- GI50 [9]: > 100 µM (inactive)
- GI50 [10]: > 100 µM (inactive)
- GI50 [11]: > 100 µM (inactive)
- GI50 [12]: > 100 µM (inactive)
- GI50 [13]: > 100 µM (inactive)
- GI50 [14]: > 100 µM (inactive)
- GI50 [15]: > 100 µM (inactive)
- GI50 [16]: > 100 µM (inactive)
- GI50 [17]: > 100 µM (inactive)
- GI50 [18]: > 100 µM (inactive)
- GI50 [19]: > 100 µM (inactive)
- GI50 [20]: > 100 µM (inactive)
- GI50 [21]: > 100 µM (inactive)
- GI50 [22]: > 100 µM (inactive)
- GI50 [23]: > 100 µM (inactive)
- GI50 [24]: > 100 µM (inactive)
- GI50 [25]: > 100 µM (inactive)
- GI50 [26]: > 100 µM (inactive)
- GI50 [27]: > 100 µM (inactive)
- GI50 [28]: > 100 µM (inactive)
- GI50 [29]: > 100 µM (inactive)
- GI50 [30]: > 100 µM (inactive)
- GI50 [31]: > 100 µM (inactive)
- GI50 [32]: > 100 µM (inactive)
- GI50 [33]: > 100 µM (inactive)
- GI50 [34]: > 100 µM (inactive)
- GI50 [35]: > 100 µM (inactive)
- GI50 [36]: > 100 µM (inactive)
- GI50 [37]: > 100 µM (inactive)
- GI50 [38]: > 100 µM (inactive)
- GI50 [39]: > 100 µM (inactive)
- GI50 [40]: > 100 µM (inactive)
- GI50 [41]: > 100 µM (inactive)
- GI50 [42]: > 100 µM (inactive)
- GI50 [43]: > 100 µM (inactive)
- GI50 [44]: > 100 µM (inactive)
- GI50 [45]: > 100 µM (inactive)
- GI50 [46]: > 100 µM (inactive)
- GI50 [47]: > 100 µM (inactive)
- GI50 [48]: > 100 µM (inactive)
- GI50 [49]: > 100 µM (inactive)
- GI50 [50]: 74.6 µM (inactive)
- GI50 [51]: > 100 µM (inactive)
- GI50 [52]: > 100 µM (inactive)
- GI50 [53]: > 100 µM (inactive)
- GI50 [54]: > 100 µM (inactive)
- GI50 [55]: > 100 µM (inactive)
